Test results taken from patent publication US6025375A, “4,5-diaryloxazole derivatives” (Fujisawa Pharmaceutical Co., Ltd., priority 1993, dated 2000).

How the values were obtained:
[1] = system: human platelet aggregation induced by ADP; test: Inhibition of human platelet aggregation induced by ADP; type: cell-based; settings: 3.2 × 10^-7 M, platelet rich plasma, ADP 2.5 μM, mean ± S.E.
Method: i) Inhibition of human platelet aggregation induced by ADP
Isomer C obtained in Example 2.
Human blood was obtained from healthy volunteers and mixed with 1/10 volume of 3.8% sodium citrate, pH 7.4. The citrate blood was centrifuged at 150×g for 10 minutes and the platelet rich plasma (PRP) was removed. The remaining blood was centrifuged for a further 10 minutes at 1500×g to prepare the platelet poor plasma (PPP), which was used as a reference for platelet aggregation. Aggregation studies were carried out using HEMATRACER 801 (NBS, Japan), a 8 channel aggregometer. 25 μl sample solution and 225 μl of PRP were mixed and stirred at 1000 rpm for 2 minutes at 37° C. Aggregation was induced by ADP solution at the final concentration of 2.5 μM.

[2] = system: mean arterial blood pressure; test: Effect on mean arterial blood pressure in conscious rats; type: in vivo; settings: 3.2 mg/kg, orally, suspended in 0.5% methyl cellulose; conscious male Sprague-Dawley rats
Method: ii) Effect on mean arterial blood pressure in conscious rats
Sodium [3-[[(1S)-2-(4,5-diphenyloxazol-2-yl)-2-cyclohexen-1-yl]methyl]phenoxy]acetate
Male Sprague-Dawley rats, aged 8-9 weeks, were anesthetized with diethyl ether and a polyethylene cannula filled with heparin solution was inserted into the femoral artery of the rats to measure mean blood pressure. Mean blood pressure was measured with a pressure transducer and recorded on a polygraph. Two hours after operation, the test compound suspended in 0.5% methyl cellulose was administered orally in a volume of 5 ml/kg. Oral hypotensive effect of the test compound was expressed as the maximal decrease (R max). Briefly, R max was expressed as maximal % change compared to mean blood pressure prior to the administration of the test compound.

Work on `O=C(O)COc1cccc(CC2CCCCC2c2nc(-c3ccccc3)c(-c3ccccc3)o2)c1` (single isomer, unassigned) [Isomer C, cis- or trans-1-[(3-carboxymethoxyphenyl)methyl]-2-(4,5-diphenyloxazol-2-yl)cyclohexane] yielded an inhibition at 0.32 µM [1] of 100 ± 0.4%.

With `O=C(O)COc1cccc(C[C@@H]2CCCC=C2c2nc(-c3ccccc3)c(-c3ccccc3)o2)c1` [(+)-Sodium [3-[[(1S)-2-(4,5-diphenyloxazol-2-yl)-2-cyclohexen-1-yl]methyl]phenoxy] acetate] the “R max (%): maximal % change (decrease) in mean blood pressure compared to that prior to administration” value [2] was 31.3%.
